This is an account of results in patent US7041303B2, “Use of moxonidine for postmyocardial infarction treatment” (Solvay Pharmaceuticals GmbH, priority 1999, dated 2006).

Series [1] has as its system Wistar rats with chronic myocardial infarction (MI). In words: Wistar rats with chronic myocardial infarction (coronary artery ligation): body weight, heart weight, heart rate, MAP, mortality. It counts as in vivo. The note with it: for Heart rate: conscious infarct rats. The procedure: The following studies were performed on male Wistar rats (270 to 320 g, Harlan Zeist, Netherlands). The rats were kept in rooms with a 12 h light/dark cycle and had free access to standard rat diet and water. The animals underwent coronary artery ligation (MI rats) or sham operation without ligation (sham rats). After 24 hours the MI rats were randomized and implanted with osmotic minipumps (Alzet, Model 2001) in order to administer moxonidine in a dose of 3 or 6 mg/kg-day s.c. (subcutaneously) or only operated on without pump implant. The moxonidine treatment was continued up to the end of the experiment three weeks after the surgical procedure.
The left anterior descending coronary artery was ligated under pentobarbital anesthesia (60 mg/kg, i.p.). Brief description: after intubation of the trachea, an incision was made in the skin over the 4th intercostal space. The overlaying muscles were separated and kept aside. The animals were then placed on positive pressure ventilation (rate 65 to 70/min, stroke volume 3 ml) and the thoracic cavity was opened by cutting the intercostal muscles. The pericardium was opened. The heart was left in situ and a 6-0 silk suture was placed below the left coronary artery in the vicinity of the origin of the pulmonary artery. The suture was tightened. Sham rats were subjected to the same procedure but without actual ligation. The ribs were pulled together with 3-0 silk suture. The muscles were then returned to their original position and the skin was sutured.
The data obtained were expressed as group means ± SEM (standard error of the mean) unless otherwise stated. Only data of infarcted hearts with an infarct area covering the major portion of the free heart wall of the left ventricle were included in the evaluation since smaller infarct areas are usually fully compensated hemodynamically. The data were analyzed by one-way analysis of variance (ANOVA) followed by post-hoc Bonferroni analysis. Differences in the structural parameters in moxonidine treated and untreated infarcted hearts were determined by Student t-test independently for the two groups.
Four groups of rats were studied: 2 moxonidine-treated infarct rats (dosage 3 and 6 mg/kg·day), untreated infarct rats and sham-operated control rats (SHAM rats). Coronary artery ligation produced a main infarction in the free wall of the left ventricle. Total mortality of the experimental animals was 29% and was the same in both infarct groups. Data of five rats of the 6 mg/kg·day group had to be excluded since their infarct area was too small. The results of the tests are summarized in Table 1 for experiments with a dosage of 6 mg/kg·day and for a dosage of 3 mg/kg·day, and are explained in the following. The results shown in Table 1 comprise the data of groups of 7 to 14 rats with the exception of the collagen measurements, for which the data refer to groups of 6 to 7 rats.

Series [2] shares this test system. In words: Measurement of cardiac interstitial collagen (Sirius red) in MI rats. It counts as in vivo, rat. The note with it: interventricular septum, infarct rats, three weeks, mean ± SEM. As to the method:
The following studies were performed on male Wistar rats (270 to 320 g, Harlan Zeist, Netherlands). The rats were kept in rooms with a 12 h light/dark cycle and had free access to standard rat diet and water. The animals underwent coronary artery ligation (MI rats) or sham operation without ligation (sham rats). After 24 hours the MI rats were randomized and implanted with osmotic minipumps (Alzet, Model 2001) in order to administer moxonidine in a dose of 3 or 6 mg/kg-day s.c. (subcutaneously) or only operated on without pump implant. The moxonidine treatment was continued up to the end of the experiment three weeks after the surgical procedure. The left anterior descending coronary artery was ligated under pentobarbital anesthesia (60 mg/kg, i.p.). Brief description: after intubation of the trachea, an incision was made in the skin over the 4th intercostal space. […] The quantity of interstitial collagen was determined on 6 to 7 hearts randomly selected from each experimental group. […] The data obtained were expressed as group means ± SEM (standard error of the mean) unless otherwise stated. […] The data were analyzed by one-way analysis of variance (ANOVA) followed by post-hoc Bonferroni analysis. Differences in the structural parameters in moxonidine treated and untreated infarcted hearts were determined by Student t-test independently for the two groups.

Series [3] shares this test system. In words: Plasma noradrenaline (HPLC) and ANF (RIA) levels in MI rats. It is filed as in vivo, rat. The note with it: for Plasma NA (noradrenaline) level / Plasma ANF (atrial natriuretic factor): three weeks, mean ± SEM. The procedure: The following studies were performed on male Wistar rats (270 to 320 g, Harlan Zeist, Netherlands). The rats were kept in rooms with a 12 h light/dark cycle and had free access to standard rat diet and water. The animals underwent coronary artery ligation (MI rats) or sham operation without ligation (sham rats). After 24 hours the MI rats were randomized and implanted with osmotic minipumps (Alzet, Model 2001) in order to administer moxonidine in a dose of 3 or 6 mg/kg-day s.c. (subcutaneously) or only operated on without pump implant. The moxonidine treatment was continued up to the end of the experiment three weeks after the surgical procedure. The left anterior descending coronary artery was ligated under pentobarbital anesthesia (60 mg/kg, i.p.). Brief description: after intubation of the trachea, an incision was made in the skin over the 4th intercostal space. The overlaying muscles were separated and kept aside. […] The pericardium was opened. The heart was left in situ and a 6-0 silk suture was placed below the left coronary artery in the vicinity of the origin of the pulmonary artery. The suture was tightened. Sham rats were subjected to the same procedure but without actual ligation. The ribs were pulled together with 3-0 silk suture. The muscles were then returned to their original position and the skin was sutured. 19 days after the surgical procedure for coronary artery ligation the rats were again anesthetized with pentobarbital and a catheter (PE-10, heat-sealed with PE-50) was introduced through the femoral artery and placed in the abdominal aorta. The catheter was advanced subcutaneously as far as the animals' neck, where it was allowed to exit and was fixed and closed at the exit site. The rats were allowed a 2-day recovery period. On the day of sampling the catheter was lengthened with a heparin-treated, saline-filled tube and two 1-ml blood samples were collected after at least 60 minutes. Blood was collected in pre-cooled sample pots (syringes) prepared with 10 μl EDTA (0.1M). After centrifugation the plasma was collected in pre-cooled tubes containing either 1.2 mg glutathione or 10 μl aprotinin (100 KIU; KIU=kilo international units) in order to determine either catecholamines or atrial natriuretic factor (ANF). The tubes were stored at −80° C. The plasma concentrations of noradrenaline, adrenaline and dopamine were determined by HPLC, whereas the concentrations of ANF were analyzed using an RIA test. The data obtained were expressed as group means ± SEM (standard error of the mean) unless otherwise stated. Only data of infarcted hearts with an infarct area covering the major portion of the free heart wall of the left ventricle were included in the evaluation since smaller infarct areas are usually fully compensated hemodynamically. The data were analyzed by one-way analysis of variance (ANOVA) followed by post-hoc Bonferroni analysis. Differences in the structural parameters in moxonidine treated and untreated infarcted hearts were determined by Student t-test independently for the two groups.

Setting [4] is: infarct rats, moxonidine 3 mg/kg daily s.c., three weeks, mean ± SEM.
Where [5] appears, read: infarct rats, moxonidine 6 mg/kg daily s.c., three weeks, mean ± SEM.
[6] abbreviates: infarct rats, moxonidine 6 mg/kg daily s.c.

Consider `COc1nc(C)nc(Cl)c1NC1=NCCN1` [moxonidine, 4-chloro-5-[(4,5-dihydro-1H-imidazol-2-yl)-amino]-6-methoxy-2-methyl-pyrimidine], for which the Heart rate in series [1] (moxonidine 3 mg/kg daily s.c., three weeks, mean ± SEM) came to 334 ± 12 beats/min; in series [1] (moxonidine 6 mg/kg daily s.c., three weeks, mean ± SEM) it was 321 ± 6 beats/min. For the same compound, the Heart weight in series [1] (setting [4]) came to 1408 ± 104 mg; in series [1] (setting [5]), 1076 ± 24 mg. For the same compound, the Heart/Body weight ratio in series [1] (setting [4]) is given as 4.7 ± 0.4. The “MAP (mean arterial pressure)” value is recorded as 87 ± 3 mmHg in series [1] (setting [4]) and 100 ± 5 mmHg in series [1] (setting [5]). In series [1] (moxonidine-treated infarct rats versus sham rats), the “Heart rate measured in conscious animals (in words)” value is “slowing of cardiac activity (bradycardia) compared to the sham rats”. The “Body weight (in words)” value in series [1] (moxonidine-treated infarct rats versus untreated infarct rats and sham rats) was “slightly lower body weight than the untreated infarct rats”. Moreover, in series [1] (moxonidine-treated infarct rats versus untreated infarct rats, dosage depending 3 to 6 mg/kg·day), the “Cardiac weight (in words)” value is “significantly lower than the cardiac weight of untreated infarct rats”. For the same compound, the “Total mortality of the experimental animals” value in series [1] (the same in both infarct groups (treated and untreated)) is listed as 29%. The entries for the “Interstitial Collagen” value in series [2] (moxonidine 3 mg/kg daily s.c.) and in series [2] (moxonidine 6 mg/kg daily s.c.) were 2.4 ± 0.2 % and 1.4 ± 0.1%, respectively. The “Plasma noradrenaline levels (in words)” value is recorded as “clearly reduced” in series [3] (infarct rats, 3 mg/kg·day group); “almost half the values of the sham rats” in series [3] (infarct rats, 6 mg/kg·day group, versus sham rats); “about half the value found for the sham rats” in series [3] (moxonidine-treated infarct rats, dose not stated, versus sham rats). Further, the “Plasma NA (noradrenaline) level” value in series [3] (infarct rats, moxonidine 3 mg/kg daily s.c.) was 345 ± 108 pg/mL; in series [3] (setting [6]), 96 ± 20 pg/mL. The “Plasma ANF (atrial natriuretic factor)” value in series [3] (infarct rats, moxonidine 3 mg/kg daily s.c., n-3) was “(54 ± 2, n-3) pg/ml”; in series [3] (setting [6]), 61 ± 8 pg/mL. Besides, the “Plasma ANF levels (in words)” value in series [3] (moxonidine-treated infarct rats versus untreated infarct rats) is “unchanged compared to those of untreated infarct rats”.
